Test results taken from patent US20100129800A1, “POLYMERS AND THEIR USE AS FLUORESCENT LABELS” (priority 2007, published 2010).
Like-named read-outs stand apart in the source and are kept apart here.

Assay: Fluorescence properties of the new compounds (excitation and emission wavelengths)
Assay type: physicochemical

Fluorescence Excitation (nm) (free compound)	Fluorescence emission (nm) (free compound)	SMILES	Fluorescence Excitation (nm)	Fluorescence emission (nm)
348		CC(=O)N1CC(NC(=O)CNC(=O)c2c3ccccc3nc3c2[nH]c2ccccc23)C[C@H]1C(=O)N1CC(NC(=O)CNC(=O)c2c3ccccc3nc3c2[nH]c2ccccc23)C[C@H]1C(N)=O (some centres unmarked) [Example 53, N^4-Acetyl-4-amino-{2-(10H-indolo[3,2-b]quinoline-11-carboxamide)acetyl}prolinyl-4-amino-{2-(10H-indolo[3,2-b]quinoline-11-carboxamide)acetyl}prolinamide]		
265	451	CC(=O)NC1CC(C(=O)NC2CC(C(=O)NC3CC(C(=O)NC4CC(C(=O)NC5CC(C(=O)NC6CC(C(=O)NC7CC(C(N)=O)N(C(=O)CNC(=O)c8c9ccccc9nc9c8[nH]c8ccccc89)C7)N(C(C)=O)C6)N(C(C)=O)C5)N(C(=O)CNC(=O)c5cc(-c6ccccc6)nc6ccccc56)C4)N(C(C)=O)C3)N(C(C)=O)C2)N(C(=O)CNC(=O)c2c3ccccc3nc3ccccc23)C1 (centres unmarked) [Example 67]		
360	440	CC(O)C(COP(=O)(O)OC(C)C(COP(=O)(O)OC(C)C(CO)NC(=O)c1c2ccccc2nc2ccccc12)NC(=O)c1c2ccccc2nc2ccccc12)NC(=O)c1c2ccccc2nc2ccccc12 (centres unmarked) [Example 43, O-{2-N-(Acridine-9-carbamoyl)-(1-hydroxybut-3-yl)} phosphate (3-1) O-{2-N-(acridine-9-carbamoyl)-(1-hydroxybut-3-yl)} phosphate (3-1) O-{2-N-(acridine-9-carbamoyl)-(3-hydroxybut-1-yl)}]		
360	435	CC(=O)N[C@@H](CCCNC(=O)CNC(=O)c1c2ccccc2nc2ccccc12)C(=O)N[C@@H](CCCNC(=O)CNC(=O)c1c2ccccc2nc2ccccc12)C(=O)N[C@@H](CCCNC(=O)CNC(=O)c1c2ccccc2nc2ccccc12)C(N)=O [Example 68, N^4-Acetyl-5-N-{2-(acridine-9-carboxamide)acetyl}ornithinyl-5-N-{2-(acridine-9-carboxamide)acetyl}ornithinyl-5-N-{2-(acridine-9-carboxamide)acetyl}ornithinamide]		
346	402	CC(O)C(CO)NC(=O)c1c2ccccc2nc2c1[nH]c1ccccc12 (centres unmarked) [Compound 2a, N-(1,3-dihydroxybutan-2-yl)-10H-indolo[3,2-d]quinoline-11-carboxamide]		
272	503	CC(=O)N1CC(NC(=O)CNC(=O)c2c3ccccc3nc3ccccc23)C[C@H]1C(=O)N1CC(NC(=O)CNC(=O)c2c3ccccc3nc3c2[nH]c2ccccc23)C[C@H]1C(=O)N1CC(NC(=O)CNC(=O)c2c3ccccc3nc3c2[nH]c2ccccc23)C[C@H]1C(N)=O (some centres unmarked) [Example 63, N^4-Acetyl-4-amino-{2-(acridine-9-carboxamide)acetyl}prolinyl-4-amino-{2-(10H-indolo[3,2-b]quinoline-11-carboxamide)acetyl}proliny-4-amino-{2-(10H-indolo[3,2-b]quinoline-11-carboxamide)acetyl}prolinamide]		
360	436	CC(=O)NCCN(CC(=O)NCCN(CC(=O)NCCN(CC(=O)NCCCCCCO)C(=O)CNC(=O)c1c2ccccc2nc2ccccc12)C(=O)CNC(=O)c1c2ccccc2nc2ccccc12)C(=O)CNC(=O)c1c2ccccc2nc2ccccc12 [Example 47]		
		CC(O)C(COP(=O)(O)OC(C)C(CO)NC(=O)c1cc(-c2ccccc2)nc2ccccc12)NC(=O)c1c2ccccc2nc2c1[nH]c1ccccc12 (centres unmarked) [Example 37, O-{2-N-(2-phenylquinoline-4-carbamoyl-1-hydroxybutan-3-yl)} and O-(2-N-{10H-indolo[3,2-d]quinoline-11-carbamoyl}-3-hydroxybut-1-yl)]	342	492
358	439	CC(O)C(CO)NC(=O)c1c2ccccc2nc2ccccc12 (centres unmarked) [Compound 2b, N-(1,3-dihydroxybutan-2-yl)acridine-9-carboxamide]		
